Experimental data published in US20240294531A1, “COVALENT HETEROCYCLES AND USES THEREOF” (Kumquat Biosciences Inc., priority 2022, published 2024).

Experiments:
[1] = molecular target: BTK C481S protein (Homo sapiens (Human), UniProt Q06187, C481S); assay: BTK C481S HTRF displacement assay; format: binding; conditions: 1-hour incubation
How it was run: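 N-terminal GST-tagged BTK C481S (2-659) incubated 1 hour at room temperature with compound (6 doses, four-fold from 5 μM), 50 nM kinase tracer 239 and anti-GST-Tb antibody. TR-FRET 665/620 ratio, background-subtracted; IC50 from constrained four-parameter fit. KI=IC50/(1+[Tracer]/Kd), tracer Kd 54 nM.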

[2] = molecular target: BTK wildtype protein (Homo sapiens (Human), UniProt Q06187); assay: BTK wildtype HTRF displacement assay; format: binding; conditions: 1-hour incubation; read-out: BTK (wt) IC50
Sequence of BTK wildtype protein (Q06187 2-659): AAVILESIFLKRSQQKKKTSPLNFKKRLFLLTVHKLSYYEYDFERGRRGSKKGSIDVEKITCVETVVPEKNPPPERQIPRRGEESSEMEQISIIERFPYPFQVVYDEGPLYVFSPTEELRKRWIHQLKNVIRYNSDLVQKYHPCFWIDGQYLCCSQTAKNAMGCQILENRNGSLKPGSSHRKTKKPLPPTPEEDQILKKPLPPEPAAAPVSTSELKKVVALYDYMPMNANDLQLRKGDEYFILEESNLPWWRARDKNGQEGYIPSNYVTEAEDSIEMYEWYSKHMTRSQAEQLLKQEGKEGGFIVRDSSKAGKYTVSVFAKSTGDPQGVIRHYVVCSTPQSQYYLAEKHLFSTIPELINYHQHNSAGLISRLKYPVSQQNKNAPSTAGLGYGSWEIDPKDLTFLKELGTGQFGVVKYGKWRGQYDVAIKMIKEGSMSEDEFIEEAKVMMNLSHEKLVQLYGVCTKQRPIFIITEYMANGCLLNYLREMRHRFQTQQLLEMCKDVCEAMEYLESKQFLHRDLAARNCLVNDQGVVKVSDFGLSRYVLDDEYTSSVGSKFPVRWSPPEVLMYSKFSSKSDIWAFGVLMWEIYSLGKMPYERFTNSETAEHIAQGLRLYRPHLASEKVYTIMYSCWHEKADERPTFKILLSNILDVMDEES
How it was run: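 Full-length N-terminal GST-tagged BTK incubated 1 h at room temperature with compound (6 doses, four-fold dilutions from 5 μM top) plus kinase tracer 239 and anti-GST-Tb antibody. Tracer displacement read as TR-FRET 665/620 ratio, background-subtracted using no-protein control. IC50 from four-parameter fit constrained 0–100% inhibition.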

Sequence of BTK C481S protein (Q06187 2-659 C481S): as the sequence (Q06187 2-659) above, with C480S counted along it

Row | Structure (SMILES) | IC50 [1] [µM] | IC50 [2] [µM]
1 | Cc1[nH]c2c(C(N)=O)cc(F)c(N3CCC4(CC3)CCN4C(=O)n3cncn3)c2c1C [Compound 142, 4-(1-(1H-1,2,4-triazole-1-carbonyl)-1,7-diazaspiro[3.5]nonan-7-yl)-5-fluoro-2,3-dimethyl-1H-indole-7-carboxamide] | ≤ 1 | ≤ 1
2 | NC(=O)c1c(-c2ccc(Oc3ccccc3)cc2)nn2c1NCC1CCN(C(=O)n3cncn3)CC12 (stereo not drawn) [Compound 288, 2-(4-phenoxyphenyl)-8-(1H-1,2,4-triazole-1-carbonyl)-4,5,5a,6,7,8,9,9a-octahydropyrazolo[1,5-a]pyrido [4,3-e]pyrimidine-3-carboxamide] | ≤ 1 | ≤ 1
3 | COc1ccc(F)cc1C(=O)NCc1ccc(-c2nn(CC3CCCCCN3C(=O)n3cncn3)c3ncnc(N)c23)cc1 (stereo not drawn) [Compound 174, N-(4-(1-((1-(1H-1,2,4-triazole-1-carbonyl)azepan-2-yl)methyl)-4-amino-1H-pyrazolo[3,4-d]pyrimidin-3-yl)benzyl)-5-fluoro-2-methoxybenzamide] | > 1 | > 1
4 | COc1ccc(F)cc1C(=O)NCc1ccc(-c2nn(C[C@H]3CCN3C(=O)n3cncn3)c3ncnc(N)c23)cc1 [Compound 108, (R)-N-(4-(1-((1-(1H-1,2,4-triazole-1-carbonyl)azetidin-2-yl)methyl)-4-amino-1H-pyrazolo[3,4-d]pyrimidin-3-yl)benzyl)-5-fluoro-2-methoxybenzamide] | ≤ 1 | ≤ 1
5 | COc1ccc(F)cc1C(=O)NCc1ccc(-c2nn(C(Cc3ccccn3)CN(C)C(=O)n3cncn3)c3ncnc(N)c23)cc1 (stereo not drawn) [Compound 268, N-(2-(4-amino-3-(4-((5-fluoro-2-methoxybenzamido)methyl)phenyl)-1H-pyrazolo[3,4-d]pyrimidin-1-yl)-3-(pyridin-2-yl)propyl)-N-methyl-1H-1,2,4-triazole-1-carboxamide] | > 1 | > 1
6 | COc1ccc(F)cc1C(=O)NCc1ccc(-c2nn(C[C@@H]3CCCC[C@H]3CN(C)C(=O)n3cncn3)c3ncnc(N)c23)cc1 [Compound 130, N-(((1R,2R)-2-((4-amino-3-(4-((5-fluoro-2-methoxybenzamido)methyl)phenyl)-1H-pyrazolo [3,4-d]pyrimidin-1-yl)methyl)cyclohexyl)methyl)-N-methyl-1H-1,2,4-triazole-1-carboxamide] | ≤ 1 | ≤ 1
7 | CN(C(=O)n1cncn1)C1CCC2C(CNc3c(C(N)=O)c(-c4ccc(Oc5ccccc5)cc4)nn32)C1 (stereo not drawn) [Compound 131, 7-(N-methyl-1H-1,2,4-triazole-1-carboxamido)-2-(4-phenoxyphenyl)-4,5,5a,6,7,8,9,9a-octahydropyrazolo [1,5-a]quinazoline-3-carboxamide] | > 1 | > 1
8 | NC(=O)c1c(-c2ccc(Oc3ccccc3)cc2)nn2c1NCC[C@H]2[C@@H]1CCCCN1C(=O)n1cncn1 [Compound 223, (S)-7-((S)-1-(1H-1,2,4-triazole-1-carbonyl)piperidin-2-yl)-2-(4-phenoxyphenyl)-4,5,6,7-tetrahydropyrazolo[1,5-a] pyrimidine-3-carboxamide] | > 1 | > 1
9 | COc1ccc(F)cc1C(=O)NCc1ccc(-c2nn(C(CC3CCCCC3)CN(C)C(=O)n3cncn3)c3ncnc(N)c23)cc1 (stereo not drawn) [Compound 202, N-(2-(4-amino-3-(4-((5-fluoro-2-methoxybenzamido)methyl)phenyl)-1H-pyrazolo[3,4-d]pyrimidin-1-yl)-3-cyclohexylpropyl)-N-methyl-1H-1,2,4-triazole-1-carboxamide] | > 1 | > 1
10 | CN(CC1CNc2c(C(N)=O)c(-c3ccc(Oc4ccccc4)cc3)nn2C1)C(=O)n1cncn1 (stereo not drawn) [Compound 149, 6-((N-methyl-1H-1,2,4-triazole-1-carboxamido)methyl)-2-(4-phenoxyphenyl)-4,5,6,7-tetrahydropyrazolo[1,5-a] pyrimidine-3-carboxamide] | > 1 | > 1
11 | COc1ccc(F)cc1C(=O)NCc1ccc(-c2nn(CC3CCCCN(C(=O)n4cncn4)C3)c(N)c2C(N)=O)cc1 (stereo not drawn) [Compound 296, 1-((1-(1H-1,2,4-triazole-1-carbonyl)azepan-3-yl)methyl)-5-amino-3-(4-((5-fluoro-2-methoxybenzamido)methyl)phenyl)-1H-pyrazole-4-carboxamide] | ≤ 1 | ≤ 1

Further lines, results first:

Row | IC50 [1] [µM] | IC50 [2] [µM] | Structure (SMILES)
12 | > 1 | > 1 | COc1ccc(F)cc1C(=O)NCc1ccc(-c2nn(CCN(C(=O)n3cncn3)C3CC3)c3ncnc(N)c23)cc1 [Compound 316, N-(2-(4-amino-3-(4-((5-fluoro-2-methoxybenzamido)methyl)phenyl)-1H-pyrazolo[3,4-d]pyrimidin-1-yl)ethyl)-N-cyclopropyl-1H-1,2,4-triazole-1-carboxamide]
13 | > 1 | > 1 | COc1ccc(F)cc1C(=O)NCc1ccc(-c2nn(C(C)CC3CCCN3C(=O)n3cncn3)c3ncnc(N)c23)cc1 (stereo not drawn) [Compound 279, N-(4-(1-(1-(1-(1H-1,2,4-triazole-1-carbonyl)pyrrolidin-2-yl)propan-2-yl)-4-amino-1H-pyrazolo[3,4-d]pyrimidin-3-yl)benzyl)-5-fluoro-2-methoxybenzamide]
14 | > 1 | > 1 | COc1ccc(F)cc1C(=O)NCc1ccc(-c2nn(C(CCN(C)C(=O)n3cncn3)Cc3ccccc3)c3ncnc(N)c23)cc1 (stereo not drawn) [Compound 195, N-(3-(4-amino-3-(4-((5-fluoro-2-methoxybenzamido)methyl)phenyl)-1H-pyrazolo[3,4-d]pyrimidin-1-yl)-4-phenylbutyl)-N-methyl-1H-1,2,4-triazole-1-carboxamide]
15 | > 1 | ≤ 1 | COc1ccc(F)cc1C(=O)NCc1ccc(-c2nn(-c3cc(N(C)C(=O)n4cncn4)ccc3C)c3ncnc(N)c23)cc1 [Compound 276, N-(3-(4-amino-3-(4-((5-fluoro-2-methoxybenzamido)methyl)phenyl)-1H-pyrazolo[3,4-d]pyrimidin-1-yl)-4-methylphenyl)-N-methyl-1H-1,2,4-triazole-1-carboxamide]
16 | ≤ 1 | ≤ 1 | CN(C(=O)n1cncn1)[C@@H]1CCCC[C@H](n2nc(-c3ccc(Oc4ccccc4)cc3)c(C(N)=O)c2N)C1 [Compound 182, N-((1R,3S)-3-(5-amino-4-carbamoyl-3-(4-phenoxyphenyl)-1H-pyrazol-1-yl)cycloheptyl)-N-methyl-1H-1,2,4-triazole-1-carboxamide]
17 | > 1 | > 1 | COc1ccc(F)cc1C(=O)NCc1ccc(-c2nn(C(Cc3ccccc3)CN(C)C(=O)n3cncn3)c3ncnc(N)c23)cc1 (stereo not drawn) [Compound 237, N-(2-(4-amino-3-(4-((5-fluoro-2-methoxybenzamido)methyl)phenyl)-1H-pyrazolo[3,4-d]pyrimidin-1-yl)-3-phenylpropyl)-N-methyl-1H-1,2,4-triazole-1-carboxamide]
18 | ≤ 1 | ≤ 1 | COc1ccc(F)cc1C(=O)NCc1ccc(-c2nn(C3(CCN(C)C(=O)n4cncn4)CCC3)c3ncnc(N)c23)cc1 [Compound 213, N-(2-(1-(4-amino-3-(4-((5-fluoro-2-methoxybenzamido)methyl)phenyl)-1H-pyrazolo[3,4-d]pyrimidin-1-yl)cyclobutyl)ethyl)-N-methyl-1H-1,2,4-triazole-1-carboxamide]
19 | ≤ 1 | ≤ 1 | COc1ccc(F)cc1C(=O)NCc1ccc(-c2nn(CC3CCCC3N(C)C(=O)n3cncn3)c(N)c2C(N)=O)cc1 (stereo not drawn) [Compound 294, N-(2-((5-amino-4-carbamoyl-3-(4-((5-fluoro-2-methoxybenzamido)methyl)phenyl)-1H-pyrazol-1-yl)methyl)cyclopentyl)-N-methyl-1H-1,2,4-triazole-1-carboxamide]
20 | > 1 | > 1 | COc1nn(C)cc1Nc1nc(N2CCCC3(CCN3C(=O)n3cncn3)C2)nc2c1ncn2C (stereo not drawn) [Compound 102, (6-(6-((3-methoxy-1-methyl-1H-pyrazol-4-yl)amino)-9-methyl-9H-purin-2-yl)-1,6-diazaspiro[3.5]nonan-1-yl) (1H-1,2,4-triazol-1-yl)methanone]
21 | ≤ 1 | ≤ 1 | COc1ccc(F)cc1C(=O)NCc1ccc(-c2nn(C3CCC3N(C)C(=O)n3cncn3)c3ncnc(N)c23)cc1 (stereo not drawn) [Compound 181, N-(2-(4-amino-3-(4-((5-fluoro-2-methoxybenzamido)methyl)phenyl)-1H-pyrazolo[3,4-d]pyrimidin-1-yl)cyclobutyl)-N-methyl-1H-1,2,4-triazole-1-carboxamide]
22 | ≤ 1 | ≤ 1 | CN(C(=O)n1cncn1)C1CCC2C(CNc3c(C(N)=O)c(-c4ccc(Oc5ccccc5)cc4)nn32)C1 (stereo not drawn) [Compound 199, 7-(N-methyl-1H-1,2,4-triazole-1-carboxamido)-2-(4-phenoxyphenyl)-4,5,5a,6,7,8,9,9a-octahydro-pyrazolo[1,5-a]quinazoline-3-carboxamide]
23 | ≤ 1 | ≤ 1 | COc1ccc(F)cc1C(=O)NCc1ccc(-c2nn(CC3CCCC3N(C)C(=O)n3cncn3)c3ncnc(N)c23)cc1 (stereo not drawn) [Compound 211, N-(2-((4-amino-3-(4-((5-fluoro-2-methoxybenzamido)methyl)phenyl)-1H-pyrazolo[3,4-d]pyrimidin-1-yl)methyl)cyclopentyl)-N-methyl-1H-1,2,4-triazole-1-carboxamide]
24 | > 1 | > 1 | COc1ccc(F)cc1C(=O)NCc1ccc(-c2nn(C(CC3CCCC3)CN(C)C(=O)n3cncn3)c3ncnc(N)c23)cc1 (stereo not drawn) [Compound 206, N-(2-(4-amino-3-(4-((5-fluoro-2-methoxybenzamido)methyl)phenyl)-1H-pyrazolo[3,4-d]pyrimidin-1-yl)-3-cyclopentylpropyl)-N-methyl-1H-1,2,4-triazole-1-carboxamide]
